This is an account of results in patent publication US11780826B2 (Amgen Inc., priority 2017, dated 2023).

For the experiment, the system named is Bovine cardiac myofibrils. As to the kind of experiment: In vitro model of dose-dependent myofibril ATPase modulation (AC1.4, pyruvate kinase/lactate dehydrogenase-coupled ATPase assay at pCa25). In kind it is biochemical. As to conditions: concentration at which ATPase activity was 1.4-fold higher than the bottom of the dose curve, mean of a minimum of two independent tests. As to the method: In vitro Model of Dose-Dependent Myofibril ATPase Modulation: Dose responses were measured using a calcium-buffered, pyruvate kinase and lactate dehydrogenase-coupled ATPase assay containing the following reagents (concentrations expressed are final assay concentrations): Potassium PIPES (12 mM), MgCl2 (2 mM), ATP (1 mM), DTT (1 mM), BSA (0.1 mg/mi), NADH (0.5 mM), PEP (1.5 mM), pyruvate kinase (4 U/ml), lactate dehydrogenase (8 U/ml), and antifoam (90 ppm). The pH was adjusted to 6.80 at 22° C. by addition of potassium hydroxide.
Bovine cardiac myofibrils were obtained by homogenizing the appropriate tissue in the presence of detergent. Such treatment removes membranes and majority of soluble cytoplasmic proteins but leaves intact cardiac sarcomeric acto-myosin apparatus. Concentrations of myofibrils were adjusted to achieve the necessary rate of ATP hydrolysis (typically 0.25-1.0 mg/ml).
Assays were performed by first preparing a dilution series of test chemical entity, each with an assay mixture containing potassium Pipes, MgCl2, BSA, DTT, pyruvate kinase, lactate dehydrogenase, myofibrils, antifoam, EGTA, CaCl2, and water. The assay was started by adding an equal volume of solution containing potassium Pipes, MgCl2, BSA, DTT, ATP, NADH, PEP, antifoam, and water. ATP hydrolysis was monitored by absorbance at 340 nm. The resulting dose response curve was fit by the 4 parameter equation y=Bottom+((Top−Bottom)/(1+((EC50/X)^Hill))). […] AC1.4 values reported in the table below are mean values based on a minimum of two independent tests.

With `N#CC1CN(S(=O)(=O)c2cccc(C(=O)N3CCC[C@@H]3C(=O)N[C@H](CO)c3ccc(Cl)c(F)c3)c2)C1` [Example 24, N-((1S)-1-(4-chloro-3-fluorophenyl)-2-hydroxyethyl)-1-(3-((3-cyano-1-azetidinyl)sulfonyl)benzoyl)-D-prolinamide], the AC1.4 is 0.02875 µM.

Regarding `N#CC1CN(S(=O)(=O)N2CCC[C@H](C(=O)N3CC(F)(F)C[C@@H]3C(=O)NCc3ccc(C(F)(F)F)cc3)C2)C1` [Example 25, 1-(((3S)-1-((3-cyano-1-azetidinyl)sulfonyl)-3-piperidinyl)carbonyl)-4,4-difluoro-N-(4-(trifluoromethyl)benzyl)-D-prolinamide], the AC1.4 came out at 0.0289 µM.

As for `CS(=O)(=O)c1ccc(NC2CC2)c(C(=O)N2CCC[C@@H]2C(=O)N[C@@H](c2ccc(C(F)(F)F)cc2F)C2CC2)c1` [Example 26, 1-(2-(cyclopropylamino)-5-(methylsulfonyl)benzoyl)-N-((R)-cyclopropyl(2-fluoro-4-(trifluoromethyl)phenyl)methyl)-D-prolinamide], the AC1.4 is 0.0296 µM.

Turning to `N#CC1CN(S(=O)(=O)N2CCC[C@H](C(=O)N3CCC[C@@H]3C(=O)N[C@H](CC(F)(F)F)c3ccc(C(F)(F)F)cc3)C2)C1` [Example 28, 1-(((3S)-1-((3-cyano-1-azetidinyl)sulfonyl)-3-piperidinyl)carbonyl)-N-((1R)-3,3,3-trifluoro-1-(4-(trifluoromethyl)phenyl)propyl)-D-prolinamide], the AC1.4 amounted to 0.03125 µM.

For the compound `C[C@@H](NC(=O)[C@H]1CCCN1C(=O)[C@H]1CCCN(S(=O)(=O)N2CC(C#N)C2)C1)c1ccc(C(F)(F)F)cc1F` [Example 29, 1-(((3S)-1-((3-cyano-1-azetidinyl)sulfonyl)-3-piperidinyl)carbonyl)-N-((1R)-1-(2-fluoro-4-(trifluoromethyl)phenyl)ethyl)-D-prolinamide], the AC1.4 stood at 0.03155 µM.

On to `N#CC1CN(S(=O)(=O)c2cccc(C(=O)N3CCC[C@@H]3C(=O)N[C@@H](c3ccc(C(F)(F)F)cc3)C3CC3)c2)C1` [Example 30, 1-(3-((3-cyano-1-azetidinyl)sulfonyl)benzoyl)-N-((R)-cyclopropyl(4-(trifluoromethyl)phenyl)methyl)-D-prolinamide], for which the AC1.4 was found to be 0.0318 µM.

On to `N#CC1CN(S(=O)(=O)c2cccc(C(=O)N3CCC[C@@H]3C(=O)N[C@H](CO)c3ccc(C(F)(F)F)cc3)c2)C1` [Example 31, 1-(3-((3-cyano-1-azetidinyl)sulfonyl)benzoyl)-N-((1S)-2-hydroxy-1-(4-(trifluoromethyl)phenyl)ethyl)-D-prolinamide], for which the AC1.4 amounted to 0.03275 µM.

`N#CC1CN(S(=O)(=O)N2CCC[C@H](C(=O)N3CCC[C@@H]3C(=O)NCc3ccc(C(F)(F)F)c(F)c3)C2)C1` [Example 32, 1-(((3S)-1-((3-cyano-1-azetidinyl)sulfonyl)-3-piperidinyl)carbonyl)-N-(3-fluoro-4-(trifluoromethyl)benzyl)-D-prolinamide] gave an AC1.4 of 0.0335 µM.

Take `N#CC1CN(S(=O)(=O)N2CCC[C@H](C(=O)N3[C@@H](C(=O)NCc4ccc(C(F)(F)F)cc4F)C[C@H]4C[C@H]43)C2)C1` [Example 33, (1R,3R,5R)-2-(((3S)-1-((3-cyano-1-azetidinyl)sulfonyl)-3-piperidinyl)carbonyl)-N-(2-fluoro-4-(trifluoromethyl)benzyl)-2-azabicyclo[3.1.0]hexane-3-carboxamide]: the AC1.4 was determined as 0.03455 µM.

In turn, `CCNc1ccc(C)cc1C(=O)N1C[C@H](O)C[C@@H]1C(=O)N[C@@H](c1cc(F)c(Cl)cc1F)C1COC1` [Example 34, (4R)-N-((R)-(4-chloro-2,5-difluorophenyl)(3-oxetanyl)methyl)-1-(2-(ethylamino)-5-methylbenzoyl)-4-hydroxy-D-prolinamide] gave an AC1.4 of 0.0361 µM.

`N#CC1CN(S(=O)(=O)N2CCC[C@H](C(=O)N3CCC[C@@H]3C(=O)N[C@@H](c3cc(F)c(C(F)(F)F)cc3F)C3CC3)C2)C1` [Example 35, 1-(((3S)-1-((3-cyano-1-azetidinyl)sulfonyl)-3-piperidinyl)carbonyl)-N-((R)-cyclopropyl(2,5-difluoro-4-(trifluoromethyl)phenyl)methyl)-D-prolinamide] registered an AC1.4 of 0.0372 µM.

In turn, `N#CC1CN(S(=O)(=O)N2CCC[C@H](C(=O)N3CCC[C@@H]3C(=O)N[C@H](CCO)c3ccc(C(F)(F)F)cc3)C2)C1` [Example 36, 1-(((3S)-1-((3-cyano-1-azetidinyl)sulfonyl)-3-piperidinyl)carbonyl)-N-((1R)-3-hydroxy-1-(4-(trifluoromethyl)phenyl)propyl)-D-prolinamide] displayed an AC1.4 of 0.03765 µM.

For `N#CC1CN(S(=O)(=O)c2cccc(C(=O)N3CCC[C@@H]3C(=O)N[C@H](c3ccc(C(F)(F)F)cc3)C3CC3)c2)C1` [Example 37, 1-(3-((3-cyano-1-azetidinyl)sulfonyl)benzoyl)-N-((S)-cyclopropyl(4-(trifluoromethyl)phenyl)methyl)-D-prolinamide], the AC1.4 was determined as 0.0383 µM.

On to `N#CC1CN(S(=O)(=O)N2CCC[C@H](C(=O)N3CCC[C@@H]3C(=O)NCc3ccc(C(F)(F)F)c(Cl)c3)C2)C1` [Example 38, N-(3-chloro-4-(trifluoromethyl)benzyl)-1-(((3S)-1-((3-cyano-1-azetidinyl)sulfonyl)-3-piperidinyl)carbonyl)-D-prolinamide], for which the AC1.4 came out at 0.0394 µM.

Take `N#CC1CN(S(=O)(=O)N2CCC[C@H](C(=O)N3CCC[C@@H]3C(=O)N[C@@H](c3cc(F)c(Cl)cc3F)C3CC3)C2)C1` [Example 39, N-((R)-(4-chloro-2,5-difluorophenyl)(cyclopropyl)methyl)-1-(((3S)-1-((3-cyano-1-azetidinyl)sulfonyl)-3-piperidinyl)carbonyl)-D-prolinamide]: the AC1.4 amounted to 0.0394 µM.

In turn, `CS(=O)(=O)c1ccc(NC2CCC2)c(C(=O)N2[C@@H](C(=O)N[C@@H](c3ccc(C(F)(F)F)cc3F)C3CC3)C[C@H]3C[C@H]32)c1` [Example 40, (1R,3R,5R)-2-(2-(cyclobutylamino)-5-(methylsulfonyl)benzoyl)-N-((R)-cyclopropyl(2-fluoro-4-(trifluoromethyl)phenyl)methyl)-2-azabicyclo[3.1.0]hexane-3-carboxamide] returned an AC1.4 of 0.0398 µM.

`C[C@@H](NC(=O)[C@H]1CCCN1C(=O)c1cccc(S(=O)(=O)N2CC(C#N)C2)c1)c1ccc(C(F)(F)F)cc1` [Example 41, 1-((3-((3-cyano-1-azetidinyl)sulfonyl)phenyl)carbonyl)-N-((1R)-1-(4-(trifluoromethyl)phenyl)ethyl)-D-prolinamide]: the AC1.4 worked out at 0.04135 µM.

In turn, `N#CC1CN(S(=O)(=O)c2cccc(C(=O)N3CCC[C@@H]3C(=O)NCc3ccc(C(F)(F)F)cc3F)c2)C1` [Example 42, 1-((3-((3-cyano-1-azetidinyl)sulfonyl)phenyl)carbonyl)-N-(2-fluoro-4-(trifluoromethyl)benzyl)-D-prolinamide] gave an AC1.4 of 0.04293 µM.

Take `N#CC1CN(S(=O)(=O)c2cccc(C(=O)N3CCC[C@@H]3C(=O)NCc3ccc(Cl)cc3)c2)C1` [Example 43, N-(4-chlorobenzyl)-1-((3-((3-cyano-1-azetidinyl)sulfonyl)phenyl)carbonyl)-D-prolinamide]: the AC1.4 worked out at 0.04337 µM.

As for `CS(=O)(=O)c1ccc(NC2CCC2)c(C(=O)N2CCC[C@@H]2C(=O)N[C@@H](c2ccc(C(F)(F)F)cc2F)C2CC2)c1` [Example 44, 1-(2-(cyclobutylamino)-5-(methylsulfonyl)benzoyl)-N-((R)-cyclopropyl(2-fluoro-4-(trifluoromethyl)phenyl)methyl)-D-prolinamide], the AC1.4 was 0.0434 µM.

In the case of `CC(C)C[C@@H](NC(=O)[C@H]1CCCN1C(=O)c1cccc(S(=O)(=O)N2CC(C#N)C2)c1)c1ccc(C(F)(F)F)cc1` [Example 45, 1-(3-((3-cyano-1-azetidinyl)sulfonyl)benzoyl)-N-((1R)-3-methyl-1-(4-(trifluoromethyl)phenyl)butyl)-D-prolinamide], the AC1.4 worked out at 0.0435 µM.

On to `Cc1ccc([C@@H](C)NC(=O)[C@H]2CCCN2C(=O)c2cccc(S(=O)(=O)N3CC(C#N)C3)c2)c(F)c1` [Example 46, 1-((3-((3-cyano-1-azetidinyl)sulfonyl)phenyl)carbonyl)-N-((1R)-1-(2-fluoro-4-methylphenyl)ethyl)-D-prolinamide], for which the AC1.4 was found to be 0.0456 µM.

Regarding `N#CC1CN(S(=O)(=O)N2CCC[C@H](C(=O)N3CCC[C@@H]3C(=O)N[C@H](c3cc(F)c(Cl)cc3F)C3CNC3)C2)C1` [Example 47, N-((S)-3-azetidinyl(4-chloro-2,5-difluorophenyl)methyl)-1-(((3S)-1-((3-cyano-1-azetidinyl)sulfonyl)-3-piperidinyl)carbonyl)-D-prolinamide], the AC1.4 was found to be 0.0527 µM.

Regarding `C[C@@H](NC(=O)[C@H]1CCCN1C(=O)[C@H]1CCCN(S(=O)(=O)N2CC(C#N)C2)C1)c1cc(F)c(Cl)cc1F` [Example 48, N-((1R)-1-(4-chloro-2,5-difluorophenyl)ethyl)-1-(((3S)-1-((3-cyano-1-azetidinyl)sulfonyl)-3-piperidinyl)carbonyl)-D-prolinamide], the AC1.4 was found to be 0.0531 µM.
